Assays:
[1] = system: HD (Q111/Q111) striatal cells; experiment: Western blot analysis of SETDB1 protein and H3K9me3 level in HD (Q111) cells; assay type: cell-based; conditions: HD (Q111) cell
Method: (§1) Cells were homogenised with Dounce homogeniser in […] of phosphate-buffered saline containing 0.4 mM sodium butyrate, 5% Triton X-100, 3 mM DTT, 1 mM sodium orthovanadate, 5 mM sodium fluoride, 3 mM PMSF, 3 mM DTT, 0.5 mg/ml leupeptin, and 10 mg/ml aprotinin as previously described. The nuclear pellets were collected and washed twice with the above-described 5% Triton buffer. Histones were extracted by solubilising in […] of 0.2 M HCl on a shaker for 2 h. After neutralising the pH of the acid-extracted solution containing the histone pool with ammonium acetate, the protein content was quantified. Each histone extract (an amount of 10 mg/20 ml) was placed onto each well of the dot blot apparatus pre-assembled with a nitrocellulose membrane and vacuumed for 30 min. After releasing the vacuum, the nitrocellulose membrane was removed and washed twice with TBS-T for 5 min. Then, the nitrocellulose membrane was blocked with 5% milk/TBS-T for 30 min and subsequently incubated with primary antibody in 5% milk/TBS-T for 24 h at cold room. The nitrocellulose membrane was washed twice with TBS-T for 5 min and incubated with secondary antibody in 1% milk (15 ml) for one hour at room temperature. After washing the membrane twice with TBS-T for 5 min, the immune reactivity was developed with Chemiluminescent Kit. […]

Q111 cells = experiment: FRET-based histone H3K9 methylation biosensor live cell imaging
Method: Fluorescence resonance energy transfer (FRET)-based histone H3K9 methylation biosensor was previously described. In brief, H3K9 biosensor is composed of a methyl-lysine binding domain of HP1 protein and a H3 tail peptide containing lysine9 between ECFP and YPet, and the NLS sequences were added in the C-terminal for the nucleus localisation of the biosensor. For the image acquisition, Q7 or Q111 cells were cultured on cover-glass-bottom dishes and the H3K9 biosensor was transfected into the cells using Lipofectamine 2000 (Invitrogen, Carlsbad, CA) according to the manufacturer’s protocols. Images were collected by a Nikon Ti-E inverted microscope with 420DF20 excitation filter, 450DRLP dichroic mirror, and two emission filters (475DF40 for ECFP and 535DF25 for YPet) controlled by a filter changer. Image analysis was performed using NIS element-AR software. Nucleus regions were selected as the regions of interests and the emission ratio of ECFP and YPet was calculated after background subtraction. The colour of each pixel was determined by the ECFP/YPet ratio value.
(§2) Moreover, the promoter assay was carried out.

SETDB1/ESET promoter = SETDB1/ESET promoter assay; assay type: cell-based; conditions: neuronal cells transfected with SETDB1 promoter construct, 0 to 20 µM
Method: STHdh^Q7/Q7 (wild type) and STHdh^Q111/Q111 (HD knock-in striatal cell line expresses mutant huntingtin at endogenous level) were generously provided from Dr. Marcy MacDonald (Harvard Medical School, Boston, MA)[35]. The SETDB1/ESET promoter assay was performed as previously described[24]^,[28]. Briefly, 2.5 × 10^5 cells were plated onto 48-well cell culture plates 24 h prior to the transfection of 200 ng of ETDB1/ESET promoter construct. DMRIE-C reagent (Invitrogen, Carlsbad, CA) was used as a transfection reagent and transfections were performed according to the manufacturer’s protocol. Nogalamycin and distamycin were purchased from Sigma-Aldrich (St. Louis, MO).
as §2

striatum of YAC128 mice = experiment: Acid histone extraction and Western blot of H3K9 methylation in the striatum of YAC128 mice; assay type: in vivo, mouse; conditions: YAC128 mice vs vehicle-treated YAC128 mice
Method: as §1, with “Each histone extract (an amount of 10 mg/20 ml) was placed onto each well of the dot blot apparatus pre-assembled with a nitrocellulose membrane and vacuumed for 30 min.” left out, “temperature.” for “temperature. After washing the membrane twice with TBS-T for 5 min, the immune reactivity was developed with Chemiluminescent Kit.”
YAC128 mice were bred with females from their background strain (B6CBAFI/J), and offspring were genotyped using PCR as previously described. […] The biochemical and behavioural/neuropathological symptoms of mice were determined after 4 weeks of drug administration. […]

[2] = system: HD (Q111/Q111) striatal cells; experiment: Confocal microscopy of H3K9me3 immunoreactivity in HD cells; assay type: cell-based
Method: Immunofluorescence staining and confocal microscopy was used to determine the trimethylated-histone H3 (Lys9) (H3K9me3) (Millipore, Billerica, MA) (1:1000). The procedures were performed as previously described. The specimens were incubated for 1 h with Alexa Fluor 594 goat anti-rabbit antibody (abcam, Cambridge, UK; 1:400) after incubation of the primary antibody. Images were analysed using an A1 Nikon confocal laser scanning microscope (Nikon, Tokyo, Japan).
as §2

SETDB1 enzyme = SETDB1 enzyme (Homo sapiens, UniProt Q15047); experiment: biochemical
Method: SETDB1 enzyme activity was analysed using commercially available SETBD1 chemiluminescent assay kit (BPS Bioscience, San Diego, CA, #51056) according to the manufacturer’s instructions. All analyses were performed in duplicates and all reagents used are supplied in the kit. […] Total 50 µL mixture of histone methylation transfer buffer (50 mM Tris–HCl, pH 9.0, 1 mM phenylmethylsulfonyl fluoride, and 0.5 mM dithiothreitol) containing 20 µM SAM, each concentration of inhibitors and 1.25 ng/µL SETDB1 enzyme was added to each well of a 96-well plate. The wells were pre-coated with histone H3 peptide substrate. Reactions were allowed to proceed for 1 h 30 min at room temperature. Methylated K9 residue of H3 peptide was detected with anti-methylated H3K9 primary antibody and HRP-conjugated secondary antibody. Chemiluminescence resulting from the reaction between the HRP-conjugated secondary antibody and the added HRP substrate was measured using a SpectraMax M2 plate reader (Molecular Devices, Sunnyvale, CA).
The inhibitory activity at each concentration was recorded by detecting chemiluminescence signal after treatment of H3K9 antibody followed by addition of the HRP substrate.

YAC128 mice = experiment: Rotarod test in HD transgenic (YAC128) mice; assay type: in vivo, mouse; conditions: i.p. five times a week, after 4 weeks, vs vehicle treated YAC128 mice
Method: YAC128 mice were bred with females from their background strain (B6CBAFI/J), and offspring were genotyped using PCR as previously described. All mice were weighed at 3 weeks of age and equally distributed according to weight and percentage within each cohort. […] The biochemical and behavioural/neuropathological symptoms of mice were determined after 4 weeks of drug administration. These procedures were performed in accordance with Guide for the Care and Use of Laboratory Animals guidelines. The animal protocol was approved by IACUC (Institutional Animal Care and Use Committee) in Hanyang University, Ansan, Republic of Korea.

## C=CCOc1cccc2nc(N3CCCC3)ccc12 [APQ, 5-allyloxy-2-(pyrrolidin-1-yl)quinoline]
[1]
  H3K9me3 level: reduced
[1]; dose-dependent
  SETDB1 protein levels: significantly decreased
Q111 cells
  FRET/ECFP ratios of H3K9 methylation: effectively modulates
SETDB1/ESET promoter
  transcriptional activity of SETDB1 (promoter assay): represses the transcriptional activity of SETDB1 in a dose-dependent manner
Striatum of YAC128 mice
  H3K9me3, H3K9me1 and H3K9me2 levels in the striatum (Western blot): selectively decreased H3K9me3 levels but not H3K9me1 or H3K9me2 levels
[2]
  H3K9me3 immunoreactivity: considerably decreased
SETDB1 enzyme
  IC50: 65 µM
YAC128 mice
  motor behaviour (rotarod test): significantly improved
